Test results: patent US10179194B2, “Self-assembling peptides, peptidomimetics and peptidic conjugates as building blocks for biofabrication and printing” (Agency for Science, Technology and Research, priority 2013, dated 2019)
Peptide text beside a SMILES is read from it.

Assays:
[1] = tested on: Chinese hamster ovary cells
guinea pigs = settings: guinea pig, in vivo
[2] = Rheology of hydrogels, storage modulus G'; format: physicochemical
Experimental: Hydrogel samples were prepared in polydimethysiloxane moulds to obtain approximately 1 mm thick, 8 mm diameter discs. Dynamic strain and oscillatory frequency sweep experiments were carried out using the ARES-G2 Rheometer (TA Instruments, Piscataway, N.J.) with 8 mm titanium parallel plate geometry. The effects of varying several parameters on viscoelastic properties were studied as follows: • (1) Effect of varying concentration • (2) Effect of varying ionic strength of the solution (water vs saline vs PBS) • (3) Effect of varying pH Extrusion from 27 Gauge Needle
Rheology. Hydrogel samples were prepared in polydimethysiloxane moulds to obtain approximately 1 mm thick, 8 mm diameter discs. Dynamic strain and oscillatory frequency sweep experiments were carried out using the ARES-G2 Rheometer (TA Instruments, Piscataway, N.J.) with 8 mm titanium parallel plate geometry.

[3] = Stimuli-responsive gelation (minimum gelation concentration); format: physicochemical
Experimental: Ac-LIVAGK-NH2 (SEQ ID NO: 20) forms hydrogels at 20 mg/mL in water, 12 mg/mL in saline, 7.5 mg/mL in PBS, and 10 mg/mL in 10 mM NaOH.(B) The rigidity, as represented by the storage modulus (G′), of 20 mg/mL Ac-LIVAGK-NH2 hydrogels increases by one order of magnitude to 10 kPa when dissolved in normal saline(NaCl) as compared to water at 1 kPa. In phosphate buffered saline (PBS), G′ increases to 40 kPa. The stiffness also increases with peptide concentration. (C) The addition of sodium hydroxide (NaOH) enhances the rigidity of 20 mg/mL Ac-LIVAGK-NH2 (SEQ ID NO: 20) hydrogel from 1 kPa in water to 80 kPa. The rigidity increases with NaOH concentration. (D) Hydrogel droplet arrays of various dimensions can be obtained by mixing equivolumes of peptide solution (such as 10 mg/mL Ac-ILVAGK-NH2)(SEQ ID NO: 20) and PBS containing small molecules. Bioactive moieties can also be encapsulated; 1 μL droplets with green food colouring and 488 nm emission quantum dots, 2 μL droplets with red food colouring and 568 nm emission fluorophore conjugated to a secondary antibody, and 5 μL droplets with methylene blue and DAPI. (E) Hydrogel “noodles” are obtained by extruding 5 mg/mL Ac-ILVAGK-NH2 (SEQ ID NO: 20) solution through a 27 gauge needle into a concentrated salt bath.
• Peptide sequence: Ac-LIVAGD-COOH (SEQ ID NO: 17) • Molecular weight: 629.56 • (1) Temperature Sweep Study for Ac-LD6 (L) (SEQ ID NO : 17): • (a) The peptide mixture was then placed on rheometer lower plate. […]

[4] = tested on: New Zealand White rabbits; test: Induced disc degeneration rabbit model (injectable therapy); format: in vivo
Experimental: FIG. 14 Evaluation of an injectable therapy in a rabbit model of degenerative disc disease. • (A) In this animal model, three lumbar intervertebral discs between the L3 and L6 vertebrae were punctured and their nucleus pulposus (NP) content aspirated. One month post-injury, two different treatments were injected into the NP space. The first treatment consists of 20 mg/mL of Ac-LIVAGK-NH2 (SEQ ID NO: 20) in PBS and gadolinium-DTPA (Gd-DTPA), a T1 MRI contrast agent. The second therapy consists of labeled donor rabbit NP cells encapsulated in 20 mg/mL of Ac-LIVAGK-NH2 (SEQ ID NO: 20) in PBS. The cells were labeled with FITC-conjugated iron oxide nanoparticles, which are T2 MRI contrastophores. […] In comparison, damaged untreated discs (D) are darker. […] The healthy disc was obtained from animal R245 (disc L2/L3), while the damaged disc was from R334 (L4/L5). The hydrogel treated disc imaged is L3/L4 from R245 and the cell therapy disc is L5/L6 of R328. At higher magnification, faintly fluorescent cells could be observed for discs that received cell therapy.
Induced disc degeneration rabbit model. […]
We designed an injectable therapy wherein our stimuli-responsive peptide Ac-LIVAGK-NH2 (SEQ ID NO: 20) was administered as a low viscosity solution which subsequently gels in situ. This therapy was evaluated in the induced disc degeneration rabbit model. […]

[5] = Self-assembly into aggregates and fibres in aqueous solution; format: physicochemical
Experimental: It is in some embodiments stable in aqueous solution at physiological conditions at ambient temperature for a period of time in the range from 1 day to 1 month or more. It may in some embodiments be stable in aqueous solution at physiological conditions at 90° C. for at least 1 hour, at least 2 hours, at least 3 hours, at least 4 hours or at least 5 hours An amphiphilic linear sequence of an amphiphilic peptide and/or peptoid including an amphiphilic linear peptide and/or peptoid, is capable of providing a self assembling α-helical fiber in aqueous solution under physiological conditions. The peptides/peptoids (typically 3-7-mers) in the L- or D-form can self assemble into supramolecular helical fibers which are organized into mesh-like structures mimicking biological substances such as collagen. It has previously been observed in X-ray crystallography that peptides of a length of 3 to 6 amino acids with repetitive alanine containing sequences and an acetylated […] take a helical conformation (Hatakeyama, Y, et al, Angew. Chem. Int. Ed. (2009) 8695-8698). Using peptides with an amphiphilic sequence, Ac-LD6 (L), the formation of aggregates has for example been observed already at 0.1 mg/ml. […]

CC[C@H](C)[C@H](NC(=O)[C@H](CC(C)C)NC(C)=O)C(=O)N[C@H](C(=O)N[C@@H](C)C(=O)NCC(=O)N[C@@H](CCCCN)C(N)=O)C(C)C [Ac-LIVAGK-NH2] (Ac-LIVAGK-NH2)
Breaks SB (chromosome break) [1]: 2
Breaks TB (chromatid break) [1]: 3
Cells with aberrations (excluding gaps) [1]: 5
D (deletion) [1]: 0
Gaps SG (chromosome gap) [1]: 2
Inter Chromosomal Rearrangements CR (complex) [1]: 0
Inter Chromosomal Rearrangements DC (dicentric chromosome) [1]: 0
Inter Chromosomal Rearrangements QR (quadradial) [1]: 0
Inter Chromosomal Rearrangements R (ring) [1]: 0
Inter Chromosomal Rearrangements TR (triradial) [1]: 0
Other aberrations DM (double minute) [1]: 0
Other aberrations PV (pulverized) [1]: 0
mutagenicity (genotoxicity assays) [1]: non-mutagenic
irritation or allergic reactions (guinea pigs): no irritation or allergic reactions
reactions following subsequent immune challenge (guinea pigs): no reactions were observed
systemic signs of toxicity (guinea pigs): did not exhibit any systemic signs of toxicity
storage modulus (G′) ([2]; 20 mg/mL hydrogel in normal saline (NaCl)): 10 kPa
storage modulus (G′) ([2]; 20 mg/mL hydrogel in phosphate buffered saline (PBS)): 40 kPa
storage modulus (G′) ([2]; 20 mg/mL hydrogel in water): 1 kPa
storage modulus (G′) ([2]; 20 mg/mL hydrogel with addition of sodium hydroxide (NaOH)): 80 kPa
concentration at which hydrogels form ([3]; in 10 mM NaOH): 10000 µg/mL
concentration at which hydrogels form ([3]; in PBS): 7500 µg/mL
concentration at which hydrogels form ([3]; in saline): 12000 µg/mL
concentration at which hydrogels form ([3]; in water): 20000 µg/mL
immune response and tissue integration in histology sections of discs ([4]; 20 mg/mL in PBS with Gd-DTPA, or with labeled donor rabbit NP cells, two month post-treatment): integrated with the tissue and did not elicit an immune response
time to gelation in situ ([4]; approximately 100 μL of 20 mg/mL peptide in PBS injected into a damaged NP): ≤ 5 min

Ac-LIVAGD-OH [Ac-LD6 (L)]
concentration at which formation of aggregates is observed [5]: 100 µg/mL
concentration at which peptide monomers align to form fibrous structures [5]: 1000 µg/mL
